The values below come from patent US5502035A, “N-terminus modified analogs of LHRH” (Tap Holdings Inc., priority 1994, dated 1996).

SMILES strings stand for the structures. Non-standard residues stand in square brackets, D forms with d. Residues, ends and D or L forms follow the SMILES beside them. *: point of attachment. Shikimoyl = O=C(C1=C[C@@H](O)[C@@H](O)[C@H](O)C1)*; dPhe(4-Cl) = N[C@H](Cc1ccc(Cl)cc1)C(=O)O; d2Nal = N[C@H](Cc1ccc2ccccc2c1)C(=O)O; NMeY = CN[C@@H](Cc1ccc(O)cc1)C(=O)O; hArg = N=C(N)NCCCC[C@H](N)C(=O)O; d3Pal = N[C@H](Cc1cccnc1)C(=O)O; NMeL = CN[C@@H](CC(C)C)C(=O)O; Nicotinoyl = O=C(c1cccnc1)*; 2Furoyl = O=C(c1ccco1)*; Aze = O=C(O)[C@@H]1CCN1

In the assay the target is T1, LHRH (Rattus norvegicus, UniProt P30969).
T1 construct: endogenous in cells; host or cells: rat pituitary cells (own knowledge of the cited Haviv 1989 method)
T1 sequence (P30969 1-327): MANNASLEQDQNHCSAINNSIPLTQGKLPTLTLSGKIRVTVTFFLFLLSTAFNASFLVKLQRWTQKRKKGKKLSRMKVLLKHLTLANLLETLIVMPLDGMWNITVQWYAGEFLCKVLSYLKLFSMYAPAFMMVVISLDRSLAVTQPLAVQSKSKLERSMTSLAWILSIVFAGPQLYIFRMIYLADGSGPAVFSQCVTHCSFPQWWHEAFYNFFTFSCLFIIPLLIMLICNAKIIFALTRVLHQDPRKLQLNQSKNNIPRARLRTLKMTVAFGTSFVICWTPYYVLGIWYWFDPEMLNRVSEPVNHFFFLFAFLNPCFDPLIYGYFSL
Kind of assay: in vitro test for LHRH antagonist potency (pA2). It is filed as cell-based. The settings on record: negative logarithm of the antagonist concentration required to shift the response curve produced by the agonist leuprolide to two-fold higher concentration. The gist of the method:
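Rat LHRH receptor in vitro functional test; pA2 = negative log of the antagonist concentration shifting the leuprolide agonist response curve to two-fold higher concentration.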

Regarding `CC(C)C[C@@H](C(=O)N[C@@H](CCCNC(=N)N)C(=O)N1CCC[C@H]1C(=O)N[C@H](C)C(N)=O)N(C)C(=O)[C@@H](CCCCNC(=O)C1=C[C@@H](O)[C@@H](O)[C@H](O)C1)NC(=O)[C@H](Cc1ccc(O)cc1)N(C)C(=O)[C@H](CO)NC(=O)[C@@H](Cc1cccnc1)NC(=O)[C@@H](Cc1ccc(Cl)cc1)NC(=O)[C@@H](Cc1ccc2ccccc2c1)NC(=O)CNC(=O)c1cccnc1` [Example 23b, N-Nicotinyl-Gly-D2Nal-D4ClPhe-D3Pal-Ser-NMeTyr-DLys(Shikimyl)-NMeLeu-Arg-Pro-DAlaNH2] (Nicotinoyl-G[d2Nal][dPhe(4-Cl)][d3Pal]S[NMeY][dK](Shikimoyl)[NMeL]RP[dA]-NH2), the antagonist equilibrium constant (Kb) is 0.0186 nM.

As for `CC(C)C[C@H](NC(=O)[C@@H](CCCCNC(=O)C1=C[C@@H](O)[C@@H](O)[C@H](O)C1)NC(=O)[C@H](Cc1ccc(O)cc1)N(C)C(=O)[C@H](CO)NC(=O)[C@@H](Cc1cccnc1)NC(=O)[C@@H](Cc1ccc(Cl)cc1)NC(=O)[C@@H](Cc1ccc2ccccc2c1)NC(=O)CNC(=O)c1cccnc1)C(=O)N[C@@H](CCCNC(=N)N)C(=O)N1CC[C@H]1C(=O)N[C@H](C)C(N)=O` [Example 24, N-Nicotinyl-Gly-D2Nal-D4ClPhe-D3Pal-Ser-NMeTyr-DLys(Shikimyl)-Leu-Arg-Aze-DAlaNH2] (Nicotinoyl-G[d2Nal][dPhe(4-Cl)][d3Pal]S[NMeY][dK](Shikimoyl)LR[Aze][dA]-NH2), the antagonist equilibrium constant (Kb) is 0.0282 nM.

On to `CC(C)C[C@H](NC(=O)[C@@H](CCCCNC(=O)C1=C[C@@H](O)[C@@H](O)[C@H](O)C1)NC(=O)[C@H](Cc1ccc(O)cc1)N(C)C(=O)[C@H](CO)NC(=O)[C@@H](Cc1cccnc1)NC(=O)[C@@H](Cc1ccc(Cl)cc1)NC(=O)[C@@H](Cc1ccc2ccccc2c1)NC(=O)CNC(=O)c1cccnc1)C(=O)N[C@@H](CCCCNC(=N)N)C(=O)N1CCC[C@H]1C(=O)N[C@H](C)C(N)=O` [Example 25a, N-Nicotinyl-Gly-D2Nal-D4ClPhe-D3Pal-Ser-NMeTyr-DLys(Shik)-Leu-Harg-Pro-DAlaNH2] (Nicotinoyl-G[d2Nal][dPhe(4-Cl)][d3Pal]S[NMeY][dK](Shikimoyl)L[hArg]P[dA]-NH2), for which the Kb was 0.0141 nM.

As to `CC(C)C[C@H](NC(=O)[C@@H](CCCCNC(=O)C1=C[C@@H](O)[C@@H](O)[C@H](O)C1)NC(=O)[C@H](Cc1ccc(O)cc1)N(C)C(=O)[C@H](CO)NC(=O)[C@@H](Cc1cccnc1)NC(=O)[C@@H](Cc1ccc(Cl)cc1)NC(=O)[C@@H](Cc1ccc2ccccc2c1)NC(=O)[C@@H](CO)NC(=O)c1cccnc1)C(=O)N[C@@H](CCCCNC(=N)N)C(=O)N1CCC[C@H]1C(=O)N[C@H](C)C(N)=O` [Example 25b, N-Nicotinyl-DSer-D2Nal-D4ClPhe-D3Pal-Ser-NMeTyr-DLys(Shikimyl)-Leu-Harg-Pro-DAlaNH2] (Nicotinoyl-[dS][d2Nal][dPhe(4-Cl)][d3Pal]S[NMeY][dK](Shikimoyl)L[hArg]P[dA]-NH2), the Kb is 0.00794 nM.

With `CC(C)C[C@H](NC(=O)[C@@H](CCCCNC(=O)C1=C[C@@H](O)[C@@H](O)[C@H](O)C1)NC(=O)[C@H](Cc1ccc(O)cc1)N(C)C(=O)[C@H](CO)NC(=O)[C@@H](Cc1cccnc1)NC(=O)[C@@H](Cc1ccc(Cl)cc1)NC(=O)[C@@H](Cc1ccc2ccccc2c1)NC(=O)CNC(=O)c1ccco1)C(=O)N[C@@H](CCCCNC(=N)N)C(=O)N1CCC[C@H]1C(=O)N[C@H](C)C(N)=O` [Example 25c, N-(2-Furoyl)-Gly-D2Nal-D4ClPhe-D3Pal-Ser-NMeTyr-DLys(Shik)-Leu-Harg-Pro-DAlaNH2] (2Furoyl-G[d2Nal][dPhe(4-Cl)][d3Pal]S[NMeY][dK](Shikimoyl)L[hArg]P[dA]-NH2), the Kb was 0.0017 nM.
